One data set has as its system MCF7. As to the kind of experiment: Cytotoxicity against human MCF7 cells by resazurin reduction test. The format is functional, cell-based. In general terms: Resazurin is reduced to fluorescent resorufin, in cell work by metabolically active cells.
A further data set relates to A549. The data set is described as follows: Cytotoxicity against human A549 cells by resazurin reduction test. The format is functional, cell-based.
For the next data set, the system named is PC-3. The data set is described as follows: Cytotoxicity against human PC3 cells by resazurin reduction test. The format is functional, cell-based.
Data set [1] can be described thus: Toxicity in sheep erythrocytes assessed as induction of hemolysis. The format is cell-based, Ovis aries, Erythrocyte. Conditions: read-out: HD50 (the source's name).
The nature of data set [2]: Cytotoxicity against human WS1 cells by resazurin reduction test. The format is cell-based.
For the next data set, the system named is DLD-1. The data set is described as follows: Cytotoxicity against human DLD1 cells by resazurin reduction test. The format is functional, cell-based.

A word on the IC50: it is the point on the concentration scale where inhibition reaches its midpoint. Read a low IC50 as higher potency. For `C=C(C)[C@@H]1CC[C@]2(CO)CC[C@]3(C)[C@H](CC[C@@H]4[C@@]5(C)CC[C@H](O[C@@H]6O[C@H](CO)[C@@H](O[C@@H]7O[C@@H](C)[C@H](O)[C@@H](O)[C@H]7O)[C@H](O)[C@H]6O[C@@H]6O[C@@H](C)[C@H](O)[C@@H](O)[C@H]6O)C(C)(C)[C@@H]5CC[C@]43C)[C@@H]12`, the 50% inhibitory concentration (IC50) (in the data set with MCF7; in the data set on A549; in the data set with PC-3; in data set [2]; in the data set with DLD-1) was > 50 µM in each case. For the same compound, the HC50 in data set [1] was > 100 µM.
In the case of `C[C@@H]1O[C@@H](O[C@H]2[C@H](O[C@H]3CC[C@]4(C)[C@H]5CC[C@@H]6[C@H]7[C@H]8OC[C@@]7(CCC8(C)C)CC[C@@]6(C)[C@]5(C)CC[C@H]4C3(C)C)O[C@H](CO)[C@@H](O[C@@H]3O[C@@H](C)[C@H](O)[C@@H](O)[C@H]3O)[C@@H]2O)[C@H](O)[C@H](O)[C@H]1O`, the IC50 with MCF7 was determined as 15 µM; with A549, 14 µM; in the data set on PC-3 it was 13 µM; in data set [2] it was 9 µM; with DLD-1, 13 µM. The HC50 in data set [1] was 90 µM.
Take `C=C(C)[C@@H]1CC[C@]2(C)CC[C@]3(C)[C@H](CC[C@@H]4[C@@]5(C)CC[C@H](O)C(C)(C)[C@@H]5CC[C@]43C)[C@@H]12` [LUPEOL]: the 50% inhibitory concentration (IC50) (with MCF7; in the data set on A549; in the data set on PC-3; in data set [2]; in the data set on DLD-1) was > 50 µM each time. The HC50 in data set [1] is > 100 µM.
`CC1(C)CC[C@]23CC[C@]4(C)[C@H](CC[C@@H]5[C@@]6(C)CC[C@H](O)C(C)(C)[C@@H]6CC[C@]54C)[C@H]2[C@H]1OC3` [ALLOBETULIN]: the IC50 (with MCF7; with A549; with PC-3; in data set [2]; with DLD-1) was > 50 µM each time. The HC50 in data set [1] is > 100 µM.
`C=C(C)[C@@H]1CC[C@]2(C(=O)O)CC[C@]3(C)[C@H](CC[C@@H]4[C@@]5(C)CC[C@H](O)C(C)(C)[C@@H]5CC[C@]43C)[C@@H]12` [BETULINIC ACID]: in data set [1], the HC50 is > 100 µM. Moreover, the IC50 in data set [2] was found to be 12 µM.
In the case of `C=C(C)[C@@H]1CC[C@]2(C)CC[C@]3(C)[C@H](CC[C@@H]4[C@@]5(C)CC[C@H](O[C@@H]6O[C@H](CO)[C@@H](O[C@@H]7O[C@@H](C)[C@H](O)[C@@H](O)[C@H]7O)[C@H](O)[C@H]6O[C@@H]6O[C@@H](C)[C@H](O)[C@@H](O)[C@H]6O)C(C)(C)[C@@H]5CC[C@]43C)[C@@H]12`, the IC50 (in the data set on MCF7; in the data set with A549; in the data set on PC-3; in data set [2]; with DLD-1) was > 50 µM throughout. Also, in data set [1], the HC50 came out at 30 µM.
In the case of `C[C@@H]1O[C@@H](O[C@H]2[C@H](O[C@H]3CC[C@]4(C)[C@H]5CC[C@@H]6[C@H]7[C@H]8OC(=O)[C@@]7(CCC8(C)C)CC[C@@]6(C)[C@]5(C)CC[C@H]4C3(C)C)O[C@H](CO)[C@@H](O[C@@H]3O[C@@H](C)[C@H](O)[C@@H](O)[C@H]3O)[C@@H]2O)[C@H](O)[C@H](O)[C@H]1O`, the half-maximal inhibitory concentration (IC50) was determined as 18 µM with MCF7; 13 µM in the data set with A549; 10 µM in the data set with PC-3; 3.8 µM in data set [2]; 14 µM in the data set with DLD-1. Besides, the HC50 in data set [1] worked out at 8 µM.
With `C=C(C)[C@@H]1CC[C@]2(CO)CC[C@]3(C)[C@H](CC[C@@H]4[C@@]5(C)CC[C@H](O)C(C)(C)[C@@H]5CC[C@]43C)[C@@H]12` [BETULIN], the HC50 in data set [1] was > 100 µM. The compound further gave an IC50 in data set [2] of 3.6 µM.
Regarding `C=C(C)[C@@H]1CC[C@]2(C(=O)O)CC[C@]3(C)[C@H](CC[C@@H]4[C@@]5(C)CC[C@H](O[C@@H]6O[C@H](CO)[C@@H](O[C@@H]7O[C@@H](C)[C@H](O)[C@@H](O)[C@H]7O)[C@H](O)[C@H]6O[C@@H]6O[C@@H](C)[C@H](O)[C@@H](O)[C@H]6O)C(C)(C)[C@@H]5CC[C@]43C)[C@@H]12`, the half-maximal inhibitory concentration (IC50) (with MCF7; in the data set with A549; in the data set on PC-3; in data set [2]; in the data set on DLD-1) was > 50 µM throughout. For the same compound, in data set [1], the HC50 was > 100 µM.
On to `CC1(C)CC[C@]23CC[C@]4(C)[C@H](CC[C@@H]5[C@@]6(C)CC[C@H](O)C(C)(C)[C@@H]6CC[C@]54C)[C@H]2[C@H]1OC3=O`, for which the IC50 (in the data set on MCF7; with A549; in the data set with PC-3; in data set [2]; in the data set on DLD-1) was > 50 µM each time. In data set [1], the HC50 was > 100 µM.

For the origin of these results see ChEMBL document CHEMBL1153966, “Synthesis, cytotoxicity, and haemolytic activity of chacotrioside lupane-type neosaponins and their germanicane-type rearrangement products” (Bioorg Med Chem Lett, 2009).
